Patent publication US5356794A, “Purified enzymatic preparation derived from chromobacterium violaceum, method for preparing it and its use in the production of α, β-dehydrotryptophanyl-peptides” (priority 1991, dated 1994)

Tests used:
Type in all cases: biochemical, Chromobacterium violaceum
L-Trp 2',3'-oxidase [1] = experiment: Kinetics of dehydrogenation of substrates by purified L-Trp 2',3'-oxidase (appearance of dehydro product at 330 nm); details: substrate of L-Trp 2',3'-oxidase, in the presence of catalase
Protocol: Measurements of the specific activity of the enzyme as well as all the kinetic experiments in the steady state, were performed under the standard conditions defined below:
Substrate: 1 mMN-acetyl-L-tryptophanamide (NATA)
Buffer: 50 mM succinate, pH 5.5
by directly monitoring the appearance of the dehydro product at 330 nm (FIG. 3). The specific activity (As) of fraction Q1 is calculated on the basis of a molar extinction coefficient at 330 nm of 18.8 mM^-1.cm^-1 determined in the laboratory (against ε330 =19.89 mM^-1.cm^-1 in the literature; TAKAI et al. mentioned above). NATA, which represents the smallest peptide chain possible, is used as reference substrate for the enzymatic reaction. The specific activity of the preparation (As) is estimated at 39.5±3.1 units for NATA (an enzymatic unit represents a mole of product formed per second per mole of heme).
The dehydrogenation of NATA was monitored as a function of the pH (pH 3-5, 6-8) at a temperature of 30° C. in 50 mM succinate buffer, pH 5.6. The reaction products are analysed and purified by reversed-phase HPLC and then freeze-dried and analysed by mass spectrometry (desorption by chemical ionisation: DCI). ΔNATA is the only product of the enzymatic reaction which is characterised by HPLC (single peak, γmax 333 nm) and by mass spectrophotometry (MH^+ =244).
The procedure is as in Example 1.7).
All the reactions were performed in the presence of catalase. In each case, the kinetic constants (Kcat and Km) are calculated so as to evaluate the efficiency of the enzyme for each type of substrate.

L-Trp 2',3'-oxidase [2] = experiment: Specificity of the reaction (conversion of amino acid derivatives and indole compounds); details: for effect of conversion of substrates with free α-amino group on the enzyme: after a few minutes, absorbance at 320 nm rises then decreases
Description: No conversion could be observed for the aromatic amino acids: N-acetyl-L-phenylalaninamide and N-acetyl-L-tyrosinamide. The same is the case when the indole ring is substituted: 5-hydroxyl L-Trp, N-formyl L-Trp and for the isomers of the D series: D-tryptophan and N-acetyl-D-tryptophan.
This phenomenon is much more rapid when the α-carboxyl functional group is not substituted (L-Trp, comp. I), and results in the formation of an unstable imine (II) which is hydrolysed to give rise to the α-keto compounds (indole-3-pyruvic acid (III) and its amide homologue respectively)--FIG. 6--. It is therefore preferable to block the α-amino functional group so as to avoid any isomerisation phenomenon and to ensure greater stability of the dehydro compound.

L-Trp 2',3'-oxidase [3] = experiment: Conversion of Trp in proteins by L-Trp 2',3'-oxidase in 24 hours; details: standard conditions, E/S ≈ 1/1000, values given as a guide
Protocol: (*): Values given as a guide, giving an idea of the conversion of Trp in
the proteins in 24 hours, under the standard conditions defined in Exampl
As specified above, the accessibility of the tryptophanyl residues, both with respect to the indolyl ring and with respect to the Cα and Cβ protons, plays a major role.

## CSCC[C@H](NC(=O)[C@H](Cc1c[nH]c2ccccc12)NC(=O)CCNC(=O)OC(C)(C)C)C(=O)N[C@@H](CC(=O)O)C(=O)N[C@@H](Cc1ccccc1)C(N)=O [Pentagastrin]
L-Trp 2',3'-oxidase [1]
  Kcat/Km: 10^6 M^-1.s^-1
L-Trp 2',3'-oxidase [1]; 30° C., 50 mM succinate buffer
  Kcat: 32 s⁻¹
  Km: 26 µM

## CC(=O)N[C@H](Cc1c[nH]c2ccccc12)C(=O)O [N-acetyl-D-tryptophan]
L-Trp 2',3'-oxidase [2]
  conversion by the enzyme (specificity of the reaction): No conversion

## NC(=O)[C@@H](N)Cc1c[nH]c2ccccc12 [L-tryptophanamide]
L-Trp 2',3'-oxidase [2]
  effect of conversion of substrates with free α-amino group on the enzyme: complete inhibition of the enzyme

## N[C@@H](Cc1c[nH]c2ccccc12)C(=O)O [L-tryptophan]
L-Trp 2',3'-oxidase [2]
  effect of conversion of substrates with free α-amino group on the enzyme: complete inhibition of the enzyme

## N[C@H](Cc1c[nH]c2ccccc12)C(=O)O [D-tryptophan]
L-Trp 2',3'-oxidase [2]
  conversion by the enzyme (specificity of the reaction): No conversion

## NCCc1c[nH]c2ccccc12 [tryptamine]
L-Trp 2',3'-oxidase [2]
  conversion by the enzyme (specificity of the reaction): no reaction

## N[C@@H](Cc1c[nH]c2ccc(O)cc12)C(=O)O [5-hydroxyl L-Trp]
L-Trp 2',3'-oxidase [2]
  conversion by the enzyme (specificity of the reaction): No conversion

## O=C(O)CCc1c[nH]c2ccccc12 [indole-3-propionic acid]
L-Trp 2',3'-oxidase [2]
  conversion by the enzyme (specificity of the reaction): oxidised to indole-3-acrylic acid

## O=CN[C@@H](Cc1c[nH]c2ccccc12)C(=O)O [N-formyl L-Trp]
L-Trp 2',3'-oxidase [2]
  conversion by the enzyme (specificity of the reaction): No conversion

## β-Lactoglobulin: protein substrate, 162 residues, Trp19-Trp51, 32 kDa
L-Trp 2',3'-oxidase [3]
  conversion of Trp in the proteins: 2 % of conversion

B1: Catalase: protein substrate, 506 residues, six Trp, 232 kDa (EC 1.11.1.6) (protein, UniProt P00432 2-527, looked up)
Catalase: ADNRDPASDQMKHWKEQRAAQKPDVLTTGGGNPVGDKLNSLTVGPRGPLLVQDVVFTDEMAHFDRERIPERVVHAKGAGAFGYFEVTHDITRYSKAKVFEHIGKRTPIAVRFSTVAGESGSADTVRDPRGFAVKFYTEDGNWDLVGNNTPIFFIRDALLFPSFIHSQKRNPQTHLKDPDMVWDFWSLRPESLHQVSFLFSDRGIPDGHRHMNGYGSHTFKLVNANGEAVYCKFHYKTDQGIKNLSVEDAARLAHEDPDYGLRDLFNAIATGNYPSWTLYIQVMTFSEAEIFPFNPFDLTKVWPHGDYPLIPVGKLVLNRNPVNYFAEVEQLAFDPSNMPPGIEPSPDKMLQGRLFAYPDTHRHRLGPNYLQIPVNCPYRARVANYQRDGPMCMMDNQGGAPNYYPNSFSAPEHQPSALEHRTHFSGDVQRFNSANDDNVTQVRTFYLKVLNEEQRKRLCENIAGHLKDAQLFIQKKAVKNFSDVHPEYGSRIQALLDKYNEEKPKNAVHTYVQHGSHLSAREKANL
L-Trp 2',3'-oxidase [3]
  conversion of Trp in the proteins: 12 % of conversion
